Measured values from the NIST ThermoML archive (doi:10.1021/je5009334).

Assay: xn = mol fraction of the nth substance listed
Settings: 101 kPa, Liquid; for speed of sound: Sing-around technique in a fixed-path interferometer; for mass density: Vibrating tube method

CC(O)CCO (stereo not given) [1,3-butanediol] + CCC(O)CO
Settings | mass density [kg/m3] | speed of sound [m/s]
298.15 K, x2 = 0 | 1001.82 | 1527.8
298.15 K, x2 = 0.1 | 1001.83 | 1523.2
298.15 K, x2 = 0.2 | 1001.78 | 1517.9
298.15 K, x2 = 0.3 | 1001.74 | 1512.7
298.15 K, x2 = 0.4 | 1001.61 | 1507.1
298.15 K, x2 = 0.5 | 1001.24 | 1498.9
298.15 K, x2 = 0.6 | 1000.94 | 1492.2
298.15 K, x2 = 0.7 | 1000.36 | 1482.6
298.15 K, x2 = 0.8 | 999.812 | 1473.2
298.15 K, x2 = 0.9 | 999.175 | 1463.1
303.15 K, x2 = 0 | 998.418 | 1514.1
303.15 K, x2 = 0.1 | 998.382 | 1509
303.15 K, x2 = 0.2 | 998.283 | 1503.9
303.15 K, x2 = 0.3 | 998.2 | 1498.2
303.15 K, x2 = 0.4 | 998.02 | 1492.5
303.15 K, x2 = 0.5 | 997.617 | 1484.3
303.15 K, x2 = 0.6 | 997.284 | 1477.4
303.15 K, x2 = 0.7 | 996.675 | 1468
303.15 K, x2 = 0.8 | 996.1 | 1458.5
303.15 K, x2 = 0.9 | 995.436 | 1448.3
308.15 K, x2 = 0 | 994.987 | 1500.2
308.15 K, x2 = 0.1 | 994.902 | 1494.9
308.15 K, x2 = 0.2 | 994.756 | 1489.6
308.15 K, x2 = 0.3 | 994.626 | 1483.8
308.15 K, x2 = 0.4 | 994.403 | 1478
308.15 K, x2 = 0.5 | 993.965 | 1469.7
308.15 K, x2 = 0.6 | 993.596 | 1462.7
308.15 K, x2 = 0.7 | 992.955 | 1453.3
308.15 K, x2 = 0.8 | 992.352 | 1443.8
308.15 K, x2 = 0.9 | 991.664 | 1433.7
313.15 K, x2 = 0 | 991.528 | 1486.3
313.15 K, x2 = 0.1 | 991.39 | 1480.8
313.15 K, x2 = 0.2 | 991.196 | 1475.3
313.15 K, x2 = 0.3 | 991.02 | 1469.3
313.15 K, x2 = 0.4 | 990.753 | 1463.5
313.15 K, x2 = 0.5 | 990.276 | 1455.1
313.15 K, x2 = 0.6 | 989.874 | 1448
313.15 K, x2 = 0.7 | 989.201 | 1438.5
313.15 K, x2 = 0.8 | 988.572 | 1429.1
313.15 K, x2 = 0.9 | 987.858 | 1419
318.15 K, x2 = 0 | 988.035 | 1472.3
318.15 K, x2 = 0.1 | 987.845 | 1466.5
318.15 K, x2 = 0.2 | 987.595 | 1460.6
318.15 K, x2 = 0.3 | 987.379 | 1454.9
318.15 K, x2 = 0.4 | 987.07 | 1449
318.15 K, x2 = 0.5 | 986.554 | 1440.5
318.15 K, x2 = 0.6 | 986.118 | 1433.3
318.15 K, x2 = 0.7 | 985.412 | 1423.9
318.15 K, x2 = 0.8 | 984.756 | 1414.3
318.15 K, x2 = 0.9 | 984.01 | 1404.4
323.15 K, x2 = 0 | 984.506 | 1458.3
323.15 K, x2 = 0.1 | 984.262 | 1452.5
323.15 K, x2 = 0.2 | 983.961 | 1446.2
323.15 K, x2 = 0.3 | 983.701 | 1440.4
323.15 K, x2 = 0.4 | 983.35 | 1434.3
323.15 K, x2 = 0.5 | 982.795 | 1425.8
323.15 K, x2 = 0.6 | 982.326 | 1418.6
323.15 K, x2 = 0.7 | 981.586 | 1409.1
323.15 K, x2 = 0.8 | 980.82 | 1399.6
323.15 K, x2 = 0.9 | 980.034 | 1390.1

OCCc1ccccc1 [2-phenylethanol] + CCC(O)CO
Settings | mass density [kg/m3] | speed of sound [m/s]
298.15 K, x1 = 0.1 | 1000.43 | 1461.6
298.15 K, x1 = 0.2 | 1002.46 | 1471.1
298.15 K, x1 = 0.3 | 1004.33 | 1479.4
298.15 K, x1 = 0.4 | 1006.16 | 1487.8
298.15 K, x1 = 0.5 | 1007.9 | 1495.7
298.15 K, x1 = 0.6 | 1009.62 | 1502.9
298.15 K, x1 = 0.7 | 1011.27 | 1509.7
298.15 K, x1 = 0.8 | 1012.87 | 1515.6
298.15 K, x1 = 0.9 | 1014.52 | 1521.3
298.15 K, x1 = 1 | 1016.14 | 1526.1
303.15 K, x1 = 0.1 | 996.641 | 1446.7
303.15 K, x1 = 0.2 | 998.651 | 1456.2
303.15 K, x1 = 0.3 | 1000.5 | 1464.1
303.15 K, x1 = 0.4 | 1002.32 | 1472.3
303.15 K, x1 = 0.5 | 1004.07 | 1480
303.15 K, x1 = 0.6 | 1005.79 | 1487.1
303.15 K, x1 = 0.7 | 1007.45 | 1494.1
303.15 K, x1 = 0.8 | 1009.06 | 1499.7
303.15 K, x1 = 0.9 | 1010.73 | 1505.3
303.15 K, x1 = 1 | 1012.39 | 1510.5
308.15 K, x1 = 0.1 | 992.825 | 1431.8
308.15 K, x1 = 0.2 | 994.816 | 1441.2
308.15 K, x1 = 0.3 | 996.652 | 1448.9
308.15 K, x1 = 0.4 | 998.462 | 1456.9
308.15 K, x1 = 0.5 | 1000.2 | 1464.5
308.15 K, x1 = 0.6 | 1001.93 | 1471.4
308.15 K, x1 = 0.7 | 1003.61 | 1478.4
308.15 K, x1 = 0.8 | 1005.25 | 1483.8
308.15 K, x1 = 0.9 | 1006.92 | 1489.5
308.15 K, x1 = 1 | 1008.61 | 1494.7
313.15 K, x1 = 0.1 | 988.976 | 1417.1
313.15 K, x1 = 0.2 | 990.951 | 1426.2
313.15 K, x1 = 0.3 | 992.775 | 1433.8
313.15 K, x1 = 0.4 | 994.579 | 1441.5
313.15 K, x1 = 0.5 | 996.32 | 1449
313.15 K, x1 = 0.6 | 998.053 | 1455.8
313.15 K, x1 = 0.7 | 999.73 | 1462.3
313.15 K, x1 = 0.8 | 1001.39 | 1468.1
313.15 K, x1 = 0.9 | 1003.09 | 1473.8
313.15 K, x1 = 1 | 1004.75 | 1479.2
318.15 K, x1 = 0.1 | 985.093 | 1402.3
318.15 K, x1 = 0.2 | 987.058 | 1411.3
318.15 K, x1 = 0.3 | 988.872 | 1418.7
318.15 K, x1 = 0.4 | 990.674 | 1426.3
318.15 K, x1 = 0.5 | 992.412 | 1433.5
318.15 K, x1 = 0.6 | 994.121 | 1440.5
318.15 K, x1 = 0.7 | 995.794 | 1446.4
318.15 K, x1 = 0.8 | 997.515 | 1452.4
318.15 K, x1 = 0.9 | 999.245 | 1458.1
318.15 K, x1 = 1 | 1000.93 | 1463.2
323.15 K, x1 = 0.1 | 981.261 | 1388.2
323.15 K, x1 = 0.2 | 983.126 | 1396
323.15 K, x1 = 0.3 | 984.949 | 1403.8
323.15 K, x1 = 0.4 | 986.752 | 1411.3
323.15 K, x1 = 0.5 | 988.495 | 1418.6
323.15 K, x1 = 0.6 | 990.215 | 1425.2
323.15 K, x1 = 0.7 | 991.945 | 1431.3
323.15 K, x1 = 0.8 | 993.644 | 1437.1
323.15 K, x1 = 0.9 | 995.386 | 1442.8
323.15 K, x1 = 1 | 997.075 | 1447.7
